Source: US12622891B2, “AMP-activated protein kinase activator” (KYOTO PHARMACEUTICAL UNIVERSITY, priority 2021, dated 2026)

Tests used:
[1] = test system: phosphorylated AMPK; assay: Phosphorylated AMPK increasing action on human colon cancer SW48 cells (Western blot, phospho-AMPKα Thr172); format: cell-based; settings: 100 nM, 2 days; FIG. 6
Procedure: Human colon cancer SW48 cells were cultured in a 5% CO2 incubator at 37° C. using DMEM (FUJIFILM Wako Pure Chemical Corporation, Japan) supplemented with 10% bovine fetal serum (FBS, HyClone, GE Healthcare Life Sciences, Buckinghamshire, England) and 1% penicillin/streptomycin (FUJIFILM Wako Pure Chemical Corporation, respectively 100 units/mL, 100 μg/mL). SW48 cells were suspended in trypsin (Lonza, Walkersville, MD, USA), and 1×10^5 cells were seeded in a 6-well dish (TPP, Trasadingen, Switzerland). After 24 hr, the cells were treated with the compounds of the present invention (compound (I-4), compound (I-5), and compound (I-10)) diluted with a culture medium to a final concentration of 100 nM and allowed to act for 2 days. Cellular proteins were dissolved in 1% SDS buffer supplemented with a protease inhibitor cocktail mix (Nacalai Tesque, Kyoto, Japan), and SDS-PAGE was performed. After transferring to PVDF membrane (Millipore, Billerica, MA, USA), Western blot analysis was performed using anti-phospho-AMPKα (Thr172, 1:1000, #2535; CST) antibody. GAPDH protein was analyzed as a loading control.

[2] = test system: human colon cancer SW48 cells; assay: Proliferation suppressive action on human colon cancer SW48 cells (Trypan blue viable cell count); format: cell-based; settings: 500 nM, 3 days; FIG. 4
Procedure: Human colon cancer SW48 cells were cultured in a 5% CO2 incubator at 37° C. using DMEM (FUJIFILM Wako Pure Chemical Corporation, Japan) supplemented with 10% bovine fetal serum (FBS, HyClone, GE Healthcare Life Sciences, Buckinghamshire, England) and 1% penicillin/streptomycin (FUJIFILM Wako Pure Chemical Corporation, respectively 100 units/mL, 100 μg/mL). SW48 cells were suspended in trypsin (Lonza, Walkersville, MD, USA), and 1×10^5 cells were seeded in a 6-well dish (TPP, Trasadingen, Switzerland). After 24 hr, a group of the compounds of the present invention (compound (I-4), compound (I-5), and compound (I-10)) diluted with a culture medium to a final concentration of 500 nM was allowed to act for 3 days. Proliferation of these cells was evaluated using Trypan blue (FUJIFILM Wako Pure Chemical Corporation, Japan) staining method and counting the number of viable cells using a Countess II automatic cell counter (Thermo Fisher Scientific, Waltham, MA).

[3] = test system: AMP/ATP ratio of human colon cancer SW48 cells; assay: AMP/ATP ratio increasing action on human colon cancer SW48 cells (AMP Glo / Cell Titer Glo); format: cell-based; settings: 500 nM and 1 μM, 2 days; FIG. 5
Procedure: Human colon cancer SW48 cells were cultured in a 5% CO2 incubator at 37° C. using DMEM (FUJIFILM Wako Pure Chemical Corporation, Japan) supplemented with 10% bovine fetal serum (FBS, HyClone, GE Healthcare Life Sciences, Buckinghamshire, England) and 1% penicillin/streptomycin (FUJIFILM Wako Pure Chemical Corporation, respectively 100 units/mL, 100 μg/mL). SW48 cells were suspended in trypsin (Lonza, Walkersville, MD, USA), and 1×10^5 cells were seeded in a 6-well dish (TPP, Trasadingen, Switzerland). After 24 hr, the cells were treated with the compound of the present invention (compound (I-5)) diluted with a culture medium to final concentrations of 500 nM and 1 μM and allowed to act for 2 days. Intracellular AMP was measured with the AMP Glo assay kit (Promega, Madison, WI, USA), and intracellular ATP was measured with the Cell Titer Glo Luminescent Cell Viability Assay Kit (Promega, Madison, WI, USA) using a SYNERGY HT (BioTek Instruments, Inc. Winooski, VT, USA), and the AMP/ATP ratio was calculated.

[4] = Body weight change on daily intraperitoneal administration in the SW48 transplantation model; format: in vivo, mouse; settings: CB17 SCID mice, 20 mg/kg daily intraperitoneally for 3.5 weeks; FIG. 7(C)
Procedure: (§1) According to the method described in a literature (Ii H, et al. ChemMedChem. (2018) 13(2):155-163), human colon cancer SW48 cells were cultured in a 5% CO2 incubator at 37° C. using DMEM (FUJIFILM Wako Pure Chemical Corporation, Japan) supplemented with 10% bovine fetal serum (FBS, HyClone, GE Healthcare Life Sciences, Buckinghamshire, England) and 1% penicillin/streptomycin (FUJIFILM Wako Pure Chemical Corporation, respectively 100 units/mL, 100 μg/mL). SW48 cells were suspended in trypsin (Lonza, Walkersville, MD, USA), and 3×10^6 cells were suspended in 100 μL of PBS/Matrigel (1:1, Corning, Corning, NY, USA), and subcutaneously injected into 6-week-old male or female CB17 SCID mice (Japan Clea, Osaka, Japan) to create a subcutaneous transplantation tumor model. The compound of the present invention was dissolved in 10% ethanol (FUJIFILM Wako Pure Chemical Corporation, Japan), 10% dimethyl sulfoxide (Nacalai Tesque, Kyoto, Japan), 10% Cremophor EL (Sigma Chemical, St. Louis, MO, USA), and 70% saline (Nacalai Tesque, Kyoto, Japan), and administered intraperitoneally at a dose of 20 mg/kg every day from 4 days after transplantation. The major diameter and minor diameter were measured twice a week using calipers, and the tumor volume was calculated by 0.5× major diameter×minor diameter^2. 3.5 Weeks after cell transplantation, the tumor was removed and the weight was measured. […]

[5] = test system: human glioblastoma cell line U251; assay: Proliferation of human glioblastoma U251 cells, compound alone or combined with temozolomide (viable cell count, CI/isobologram); format: cell-based; settings: temozolomide 12.5, 25, 50 μM with compound 25, 50, 100 nM, 6 days; CI < 0.9 = synergistic; FIG. 2
Procedure: According to the method described in a literature (Matsumura K, et al. BMC Cancer (2016) 16(1):748.), human glioblastoma cell line U251 was cultured in a 5% CO2 incubator at 37° C. using DMEM (FUJIFILM Wako Pure Chemical Corporation, Japan) supplemented with 10% bovine fetal serum (FBS, HyClone, GE Healthcare Life Sciences, Buckinghamshire, England) and 1% penicillin/streptomycin (FUJIFILM Wako Pure Chemical Corporation, respectively 100 units/mL, 100 μg/mL). Temozolomide (Sigma Chemical, St. Louis, MO, USA) which is used as a standard drug for the treatment of glioblastoma was dissolved at 200 mM using dimethyl sulfoxide (Nacalai Tesque, Kyoto, Japan) as a solvent. […] Proliferation of these cells was evaluated using Trypan blue (FUJIFILM Wako Pure Chemical Corporation, Japan) staining method and counting the number of viable cells using a Countess II automatic cell counter (Thermo Fisher Scientific, Waltham, MA). Combination index (CI) values of temozolomide and the compound of the present invention were calculated using CalcuSyn 2.11 software (Biosoft, Cambridge, UK), and Isobologram analysis was performed. The CI value of less than 0.9 was determined to be a synergistic effect, the CI value of 0.9 or more and less than 1.1 was determined to be an additive effect, and the CI value of 1.1 or more was determined to be an antagonistic effect.

[6] = test system: human colon cancer SW48 transplanted tumors; assay: In vivo antitumor effect in a human colon cancer SW48 cell subcutaneous transplantation model; parameters: species or system mouse; settings: CB17 SCID mice, 20 mg/kg intraperitoneally every day from 4 days after transplantation, 3.5 weeks; FIG. 7(A),(B)
Procedure: as §1

[7] = test system: glioblastoma transplanted tumor; assay: In vivo antitumor effect in a mouse glioblastoma transplantation model (luciferase imaging); settings: C57BL6J mouse, 10 mg/kg intraperitoneally three times a week, three weeks after transplantation; FIG. 3
Procedure: According to the method described in a literature (Tanigawa S, et al. Cancer Gene Therapy (2021). https://doi.org/10.1038/s41417-020-00282-5), murine glioblastoma stem cells introduced with the Luciferase gene were established, and cultured as neurosphere cells in a 5% CO2 incubator at 37° C. using Neurobasal medium supplemented with B27 and N2 supplements (Gibco/Thermo Fisher Scientific, Waltham, MA, USA) and 10 ng/mL of EGF and bFGF (R&D Systems, Minneapolis, MN, USA). The neurospheres were made into a single cell suspension by Accutase (Innovative Cell Technologies, San Diego, CA, USA) treatment, and 1×10^3 cells suspended in 2 μL of PBS were transplanted into the cerebrum of a 6-week-old male C57BL6J mouse (Oriental Bioservice, Kyoto, Japan) fixed on a Stereotaxic Instrument (51730D; Stoelting Co., Wood Dale, IL, USA) using a 30-gauge Hamilton syringe with autoinjector (Legato130; KD Scientific, Holliston, MA, USA). […] Three weeks after cell transplantation, D-luciferin was administered intraperitoneally at a dose of 150 mg/kg and in vivo tumor size was evaluated using the IVIS Lumina XR imaging system (Summit Pharmaceuticals International, Tokyo, Japan).

[8] = test system: phosphorylated AMPK; assay: Phosphorylated AMPK increasing action on human lung cancer A549 cells (Western blot, phospho-AMPKα Thr172); format: cell-based; settings: 100 nM to 1 μM, 3 days; FIG. 9
Procedure: Human lung cancer A549 cells were cultured in a 5% CO2 incubator at 37° C. using DMEM (FUJIFILM Wako Pure Chemical Corporation, Japan) supplemented with 10% bovine fetal serum (FBS, HyClone, GE Healthcare Life Sciences, Buckinghamshire, England) and 1% penicillin/streptomycin (FUJIFILM Wako Pure Chemical Corporation, respectively 100 units/mL, 100 μg/mL). A549 cells were suspended in trypsin (Lonza, Walkersville, MD, USA), and 1×10^5 cells were seeded in a 6-well dish (TPP, Trasadingen, Switzerland). After 24 hr, they were treated with the compound of the present invention diluted in a culture medium to final concentrations of 100 nM to 1 μM and allowed to act for 3 days. Cellular proteins were dissolved in 1% SDS buffer supplemented with a protease inhibitor cocktail mix (Nacalai Tesque, Kyoto, Japan), and SDS-PAGE was performed. After transferring to PVDF membrane (Millipore, Billerica, MA, USA), Western blot analysis was performed using anti-phospho-AMPKα (Thr172, 1:1000, #2535; CST) antibody. GAPDH protein was analyzed as a loading control.

CCCCCCCCCOCCOCCOCCOCCCCCCCCCCCCNC(=O)c1ccsc1 [I-4, N-(13,16,19,22-tetraoxahentriacontan-1-yl)thiophene-3-carboxamide]
phosphorylated AMPK in SW48 cells [1]: phosphorylated AMPK increasing action | proliferation of human colon cancer SW48 cells (number of viable cells) [2]: proliferation suppressive action

CCCCCCCCCCOCCOCCOCCOCCCCCCCCCCCCNC(=O)c1ccsc1 [I-5, N-(13,16,19,22-tetraoxadotriacontan-1-yl)thiophene-3-carboxamide]
AMP/ATP ratio of SW48 cells [3]: has action to increase the AMP/ATP ratio | body weight change [4]: no significant body weight change | phosphorylated AMPK in SW48 cells [1]: phosphorylated AMPK increasing action | combination effect with temozolomide on proliferation of U251 cells (combination index, isobologram) [5]: synergistically potentiates the proliferation suppressive ability of temozolomide | proliferation of human colon cancer SW48 cells (number of viable cells) [2]: proliferation suppressive action | tumor volume and tumor mass of SW48 subcutaneous transplanted tumors [6]: suppresses proliferation of human colon cancer SW48 transplanted tumors | in vivo tumor size of transplanted glioblastoma [7]: suppresses proliferation of glioblastoma transplanted tumor

COCCOCCOCCOCCCCCCCCCCCCNC(=O)c1csc(C)c1 [I-10, N-(13,16,19,22-tetraoxatricosan-1-yl)-5-methylthiophene-3-carboxamide]
phosphorylated AMPK in SW48 cells [1]: phosphorylated AMPK increasing action | proliferation of human colon cancer SW48 cells (number of viable cells) [2]: proliferation suppressive action

CCCCCCCCCCOCCOCCOCCOCCOCCCCCCCCCNC(=O)c1ccsc1 [I-16, N-(10,13,16,19,22-pentaoxadotriacontan-1-yl)thiophene-3-carboxamide]
phosphorylated AMPK in A549 cells [8]: phosphorylated AMPK increasing action
